Test results taken from patent publication US20140322344A1, “VACCINE PREPARATION FOR CANCER TREATMENT” (priority 2011, published 2014).

How the values were obtained:
[1] = system: mouse colon cancer cells CT 26 into which the MAGE-A4 gene was stably introduced; test: Tumor rejection test, CT26/MAGE-A4; assay type: in vivo, BALB/c mice; conditions: co-administered s.c. with CpG oligo DNA 7 days before tumor implantation; p<0.0001; FIG. 7
Protocol: A mouse colon cancer cell CT26 cell line into which the MAGE-A4 gene was stably introduced or a mouse fibrosarcoma CMS5a cell line which expresses mERK2 was subcutaneously implanted in the following manner. The CT26 cell line or CMS5a cell line, which had been cultured in a T75 flask (Nunc Co., Ltd.), was washed with PBS; then the cells were removed with PBS containing 0.5% trypsin and collected in RPMI1640 medium containing 10% FBS. After centrifugation (400×g, 5 min., 4° C.), the supernatant was removed, washed twice with RPMI1640 medium, then re-suspended in RPMI1640 medium at a concentration of 1×10^6 cells/100 μL, and subcutaneously implanted into BALB/c mice in an amount of 100 μL/individual. Subsequently, their tumor areas were measured over time. A comparison of the data in the tumor rejection test was performed according to Student's t-test using MS Excel (Microsoft).

[2] = system: CD8-positive killer T cells and CD4-positive helper T cells specific to MAGE-A4 epitopes; test: Induction of antigen-specific T cells in immunized mice, spleen cells, intracellular cytokine staining (MAGE-A4 peptides); assay type: in vivo, BALB/c mice; conditions: s.c. twice at one week intervals, FIG. 1
Protocol: […] For administration, they were subcutaneously injected into the backs of the mice twice at one week intervals. For one dose of the hydrophobized polysaccharide-synthetic long peptide complex, a dosage corresponding to 0.1 mg of the synthetic long peptide complex was administered. Either the CpG oligo DNA or the poly-IC RNA as the immunopotentiating agent was subcutaneously injected at a dose of 0.05 mg proximal to the administration site of the hydrophobized polysaccharide-synthetic long peptide.
One week after the final administration, spleen cells were isolated from the treated mice in the following manner. The spleen was isolated from the mouse and washed in RPMI1640 medium to remove blood. The spleen was ground using a slide glass, and then the free cells were collected in RPMI1640 medium. After centrifugation (400×g, 5 min., 4° C.), the supernatant was removed, to which 2 mL of ACK solution was added to treat the cells for 1 minute. 18 mL of RPMI1640 medium was added and centrifugation (400×g, 5 min., 4° C.) was carried out. […] After the number of the cells was counted, the cells were suspended in RPMI1640 medium containing 10% fetal bovine serum (FBS) so that the cell concentration was 1×10^7 cells/mL. […]
The cells were analyzed with a flow cytometer (FACS Canto II, BD Biosciences Company) using the associated analysis software (FACSDiva).

Substance: MAGE-A4 p264:40: synthetic long peptide, 40 aa, from MAGE-A4, SEQ ID NO: 1: GSNPARYEFLWGPRALAETSYVKVLEHVVRVNARVRIAYP (Human; MAGE-A4 p26440)
- tumor growth inhibition as compared to PBS administration group [1]: significant inhibition
- induction of killer T cells and helper T cells specific to the peptide ([2]; administered alone, no immunopotentiating agent): are not induced
- induction of antigen-specific killer T cells and helper T cells ([2]; co-administered with CpG oligo DNA): the intended T cells are not induced
